pIC50: −log10 of the molar value. Like-named read-outs stand apart in the source and are kept apart here.
Assays:
HDAC-1 = target: T1, HDAC-1 (Homo sapiens, UniProt Q13547); experiment: Deacetylase fluorescence assay (HDAC-1); type: biochemical
T1 construct: made in house
Outline: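 Flag-tagged HDAC-1 immunopurified from overexpressing 293-derived cells was assayed in 25 mM Tris-HCl pH 8.0, 137 mM NaCl, 2.7 mM KCl, 1 mM MgCl2 with Fluor de Lys substrate (50 uM) and inhibitor. Deacetylation was read by fluorescence after trypsin developer containing TSA.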

[1] = tested on: p21 promoter (p21-luc) in H1299 cells; experiment: p21 promoter luciferase assay using stably transfected p21-luc in H1299 cells; type: cell-based; conditions: Homo sapiens, NCI-H1299
Outline: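 H1299 cells stably carrying a p21 promoter–luciferase reporter, grown in RPMI 1640/10% FBS under Geneticin selection, seeded about 5000 cells/well and incubated overnight at 37 C. Compound exposure lasted one day. Cells were then lysed and luciferase luminescence measured.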

T1 sequence (Q13547 whole entry): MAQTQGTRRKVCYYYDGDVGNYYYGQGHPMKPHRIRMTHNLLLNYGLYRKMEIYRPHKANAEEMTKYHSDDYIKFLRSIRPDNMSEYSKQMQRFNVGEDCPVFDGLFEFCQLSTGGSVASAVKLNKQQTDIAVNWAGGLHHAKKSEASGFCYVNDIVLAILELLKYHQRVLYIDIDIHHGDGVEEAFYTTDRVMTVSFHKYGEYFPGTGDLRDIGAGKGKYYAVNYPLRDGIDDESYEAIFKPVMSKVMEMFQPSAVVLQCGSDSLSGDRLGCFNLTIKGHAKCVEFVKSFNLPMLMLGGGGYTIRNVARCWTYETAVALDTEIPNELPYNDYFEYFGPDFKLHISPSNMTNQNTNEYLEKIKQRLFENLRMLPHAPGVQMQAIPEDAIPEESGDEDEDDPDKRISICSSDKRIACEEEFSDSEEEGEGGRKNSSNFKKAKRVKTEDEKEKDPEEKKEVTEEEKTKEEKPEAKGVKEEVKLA

Row | SMILES | pIC50 (HDAC-1) | AC50 [1] [nM] | pIC50 (HDAC-1; read-out: HDAC-1 IC50)
1 | Cc1[nH]c2ccccc2c1CCN1CCc2cc(/C=C/C(=O)NO)ccc2C1 [Example 70, (E)-N-Hydroxy-3-{2-[2-(2-methyl-1H-indol-3-yl)-ethyl]-1,2,3,4-tetrahydro-isoquinolin-6-yl}-acrylamide] | > 7.00 | 100 to 1000 | 
2 | O=C(/C=C/c1ccc2c(c1)CN(S(=O)(=O)c1cccc(C(F)(F)F)c1)C2)NO [Example 12, (E)-N-Hydroxy-3-[2-(3-trifluoromethyl-benzenesulfonyl)-2,3-dihydro-1H-isoindol-5-yl]-acrylamide] |  | > 1000 | 6.00 to 7.00
3 | Cc1noc(-c2ccccc2)c1CCN1Cc2ccc(/C=C/C(=O)NO)cc2C1 [Example 34, (E)-N-Hydroxy-3-{2-[2-(3-methyl-5-phenyl-isoxazol-4-yl)-ethyl]-2,3-dihydro-1H-isoindol-5-yl}-acrylamide] |  | > 1000 | 6.00 to 7.00
4 | O=C(/C=C/c1ccc2c(c1)CN(S(=O)(=O)Cc1ccccc1)C2)NO [Example 20, (E)-N-Hydroxy-3-(2-phenylmethanesulfonyl-2,3-dihydro-1H-isoindol-5-yl)-acrylamide] |  | > 1000 | 6.00 to 7.00
5 | O=C(/C=C/c1ccc2c(c1)CN(S(=O)(=O)C1CC1)C2)NO [Example 24, (E)-3-(2-Cyclopropanesulfonyl-2,3-dihydro-1H-isoindol-5-yl)-N-hydroxy-acrylamide] |  | > 1000 | 6.00 to 7.00
6 | O=C(/C=C/c1ccc2c(c1)CN(S(=O)(=O)c1ccncc1)C2)NO [Example 6, (E)-N-Hydroxy-3-[2-(pyridine-4-sulfonyl)-2,3-dihydro-1H-isoindol-5-yl]-acrylamide] |  | > 1000 | 6.00 to 7.00
7 | CS(=O)(=O)N1Cc2ccc(/C=C/C(=O)NO)cc2C1 [Example 4, (E)-N-Hydroxy-3-(2-methanesulfonyl-2,3-dihydro-1H-isoindol-5-yl)-acryl amide] |  | > 1000 | 6.00 to 7.00
8 | O=C(/C=C/c1ccc2c(c1)CN(S(=O)(=O)c1ccccc1)C2)NO [Example 5, (E)-3-(2-Benzenesulfonyl-2,3-dihydro-1H-isoindol-5-yl)-N-hydroxy-acrylamide] |  | > 1000 | 6.00 to 7.00
9 | O=C(/C=C/c1ccc2c(c1)CCN(CCc1cnn3ccccc13)C2)NO [Example 69, (E)-N-Hydroxy-3-[2-(2-pyrazolo[1,5-a]pyridin-3-yl-ethyl)-1,2,3,4-tetrahydro-isoquinolin-6-yl]-acrylamide] |  | > 1000 | > 7.00
10 | COc1ccc(S(=O)(=O)N2Cc3ccc(/C=C/C(=O)NO)cc3C2)cc1 [Example 9, (E)-N-Hydroxy-3-[2-(4-methoxy-benzenesulfonyl)-2,3-dihydro-1H-isoindol-5-yl]-acrylamide] |  | > 1000 | > 7.00
11 | CCCCS(=O)(=O)N1Cc2ccc(/C=C/C(=O)NO)cc2C1 [Example 19, (E)-3-[2-(Butane-1-sulfonyl)-2,3-dihydro-1H-isoindol-5-yl]-N-hydroxy-acrylamide] |  | > 1000 | 6.00 to 7.00
12 | COc1cccc(C(=O)N2CCc3ccc(/C=C/C(=O)NO)cc3C2)c1 [Example 59, (E)-N-Hydroxy-3-[2-(3-methoxy-benzoyl)-1,2,3,4-tetrahydro-isoquinolin-7-yl]-acrylamide] |  | > 1000 | 6.00 to 7.00
13 | COc1cccc(S(=O)(=O)N2CCc3ccc(/C=C/C(=O)NO)cc3C2)c1 [Example 55, (E)-N-Hydroxy-3-[2-(3-methoxy-benzenesulfonyl)-1,2,3,4-tetrahydro-isoquinolin-7-yl]-acrylamide] |  | > 1000 | 6.00 to 7.00
14 | O=C(/C=C/c1ccc2c(c1)CCN(CCc1ccccc1)C2)NO [Example 75, (E)-N-Hydroxy-3-(2-phenethyl-1,2,3,4-tetrahydro-isoquinolin-6-yl)-acrylamide] |  | > 1000 | > 7.00
15 | O=C(/C=C/c1ccc2c(c1)CN(CCC1CCCCC1)C2)NO [Example 35, (E)-3-[2-(2-Cyclohexyl-ethyl)-2,3-dihydro-1H-isoindol-5-yl]-N-hydroxy-acrylamide] |  | > 1000 | 6.00 to 7.00
